In PubChem BioAssay (NCI):
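The compound was tested at five concentrations on cells cultured in 96-well plates, with a 48-hour exposure period. TGI is the concentration that stops growth completely.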

What was measured:
Experiment in all cases: NCI tumour cell line growth inhibition, 48 h
A498 renal = system: A498 renal
A549 NSCLC = system: A549 NSCLC
ACHN renal = system: ACHN renal
CAKI-1 renal = system: CAKI-1 renal
CCRF-CEM leukemia = system: CCRF-CEM leukemia
COLO 205 colon = system: COLO 205 colon
DU-145 prostate = system: DU-145 prostate
EKVX NSCLC = system: EKVX NSCLC
HCC-2998 colon = system: HCC-2998 colon
HCT-15 colon = system: HCT-15 colon
HL-60(TB) leukemia = system: HL-60(TB) leukemia
HOP-62 NSCLC = system: HOP-62 NSCLC
HOP-92 NSCLC = system: HOP-92 NSCLC
HS 578T breast = system: HS 578T breast
HT29 colon = system: HT29 colon
IGROV1 ovarian = system: IGROV1 ovarian
K-562 leukemia = system: K-562 leukemia
KM12 colon = system: KM12 colon
LOX IMVI melanoma = system: LOX IMVI melanoma
M14 melanoma = system: M14 melanoma
MCF7 breast = system: MCF7 breast
MDA-MB-231 breast = system: MDA-MB-231 breast
MDA-MB-435 = system: MDA-MB-435
MDA-N = system: MDA-N
MOLT-4 leukemia = system: MOLT-4 leukemia
NCI-H226 lung = system: NCI-H226 lung
NCI-H23 lung = system: NCI-H23 lung
NCI-H460 lung = system: NCI-H460 lung
NCI/ADR-RES ovarian = system: NCI/ADR-RES ovarian
OVCAR-3 ovarian = system: OVCAR-3 ovarian
OVCAR-4 ovarian = system: OVCAR-4 ovarian
OVCAR-5 ovarian = system: OVCAR-5 ovarian
OVCAR-8 ovarian = system: OVCAR-8 ovarian
PC-3 prostate = system: PC-3 prostate
RPMI-8226 leukemia = system: RPMI-8226 leukemia
RXF 393 renal = system: RXF 393 renal
SF-268 CNS = system: SF-268 CNS
SF-295 CNS = system: SF-295 CNS
SF-539 CNS = system: SF-539 CNS
SK-MEL-2 melanoma = system: SK-MEL-2 melanoma
SK-MEL-28 melanoma = system: SK-MEL-28 melanoma
SK-MEL-5 melanoma = system: SK-MEL-5 melanoma
SK-OV-3 ovarian = system: SK-OV-3 ovarian
SNB-19 CNS = system: SNB-19 CNS
SNB-75 CNS = system: SNB-75 CNS
SR leukemia = system: SR leukemia
SW-620 colon = system: SW-620 colon
T-47D breast = system: T-47D breast
TK-10 renal = system: TK-10 renal
U251 CNS = system: U251 CNS
UACC-257 melanoma = system: UACC-257 melanoma
UACC-62 melanoma = system: UACC-62 melanoma
UO-31 renal = system: UO-31 renal
786-0 renal = system: 786-0 renal
HCT-116 colon = system: HCT-116 colon
MALME-3M melanoma = system: MALME-3M melanoma
SN12C renal = system: SN12C renal
NCI-H522 lung = system: NCI-H522 lung

Measured: TGI

Cc1ccc(C(=O)N/N=C(\N=Nc2cccc(C)c2)c2ccc(N(CCC#N)CCC#N)cc2C)cc1
> 100 µM: A498 renal | A549 NSCLC | ACHN renal | CAKI-1 renal | CCRF-CEM leukemia | COLO 205 colon | DU-145 prostate | EKVX NSCLC | HCC-2998 colon | HCT-15 colon | HL-60(TB) leukemia | HOP-62 NSCLC | HOP-92 NSCLC | HS 578T breast | HT29 colon | IGROV1 ovarian | K-562 leukemia | KM12 colon | LOX IMVI melanoma | M14 melanoma | MCF7 breast | MDA-MB-231 breast | MDA-MB-435 | MDA-N | MOLT-4 leukemia | NCI-H226 lung | NCI-H23 lung | NCI-H460 lung | NCI/ADR-RES ovarian | OVCAR-3 ovarian | OVCAR-4 ovarian | OVCAR-5 ovarian | OVCAR-8 ovarian | PC-3 prostate | RPMI-8226 leukemia | RXF 393 renal | SF-268 CNS | SF-295 CNS | SF-539 CNS | SK-MEL-2 melanoma | SK-MEL-5 melanoma | SK-OV-3 ovarian | SNB-19 CNS | SNB-75 CNS | SR leukemia | SW-620 colon | T-47D breast | TK-10 renal | U251 CNS | UACC-257 melanoma | UACC-62 melanoma | UO-31 renal
61.4 µM: SK-MEL-28 melanoma

Cc1oc2c(cc(O)c3ccccc32)c2cccc1-2
76.7 µM: M14 melanoma
34.8 µM: MDA-MB-231 breast
> 100 µM: 786-0 renal | A498 renal | A549 NSCLC | ACHN renal | CAKI-1 renal | CCRF-CEM leukemia | COLO 205 colon | DU-145 prostate | EKVX NSCLC | HCC-2998 colon | HCT-116 colon | HCT-15 colon | HL-60(TB) leukemia | HOP-62 NSCLC | HOP-92 NSCLC | HS 578T breast | HT29 colon | KM12 colon | LOX IMVI melanoma | MALME-3M melanoma | MCF7 breast | MDA-MB-435 | MDA-N | MOLT-4 leukemia | NCI-H23 lung | NCI-H460 lung | NCI/ADR-RES ovarian | OVCAR-3 ovarian | OVCAR-5 ovarian | OVCAR-8 ovarian | PC-3 prostate | RPMI-8226 leukemia | SF-268 CNS | SF-295 CNS | SF-539 CNS | SK-MEL-28 melanoma | SK-MEL-5 melanoma | SK-OV-3 ovarian | SN12C renal | SNB-19 CNS | SNB-75 CNS | SR leukemia | SW-620 colon | T-47D breast | TK-10 renal | U251 CNS | UACC-257 melanoma

COc1ccc(N(CN2C(=O)CCC2OC)C(C)=O)cc1 (centres undefined)
> 100 µM: 786-0 renal | A498 renal | A549 NSCLC | ACHN renal | CAKI-1 renal | CCRF-CEM leukemia | COLO 205 colon | DU-145 prostate | EKVX NSCLC | HCT-116 colon | HCT-15 colon | HOP-62 NSCLC | HOP-92 NSCLC | HS 578T breast | HT29 colon | IGROV1 ovarian | K-562 leukemia | KM12 colon | LOX IMVI melanoma | M14 melanoma | MALME-3M melanoma | MCF7 breast | MDA-MB-231 breast | MDA-MB-435 | MDA-N | MOLT-4 leukemia | NCI-H226 lung | NCI-H23 lung | NCI-H460 lung | NCI-H522 lung | NCI/ADR-RES ovarian | OVCAR-3 ovarian | OVCAR-4 ovarian | OVCAR-5 ovarian | OVCAR-8 ovarian | PC-3 prostate | RPMI-8226 leukemia | RXF 393 renal | SF-268 CNS | SF-295 CNS | SF-539 CNS | SK-MEL-2 melanoma | SK-MEL-28 melanoma | SK-MEL-5 melanoma | SK-OV-3 ovarian | SN12C renal | SNB-19 CNS | SNB-75 CNS | SR leukemia | SW-620 colon | T-47D breast | TK-10 renal | U251 CNS | UACC-257 melanoma | UACC-62 melanoma | UO-31 renal

CCCCNC(=O)OCCN=C1c2ccccc2C(Br)C(Br)c2ccccc21 (centres undefined)
76.2 µM: UACC-257 melanoma
47.2 µM: LOX IMVI melanoma | NCI/ADR-RES ovarian
59.6 µM: OVCAR-4 ovarian
73 µM: NCI-H522 lung
37.6 µM: HL-60(TB) leukemia
60.5 µM: HCT-116 colon
40.2 µM: M14 melanoma
46.1 µM: OVCAR-3 ovarian
58.3 µM: HT29 colon
49.2 µM: CAKI-1 renal
62.5 µM: U251 CNS
52.9 µM: MALME-3M melanoma
62.4 µM: ACHN renal
55.3 µM: SNB-19 CNS
52.2 µM: TK-10 renal
> 100 µM: A498 renal | A549 NSCLC | CCRF-CEM leukemia | DU-145 prostate | EKVX NSCLC | HCC-2998 colon | HOP-62 NSCLC | HS 578T breast | IGROV1 ovarian | K-562 leukemia | KM12 colon | MCF7 breast | MDA-MB-231 breast | NCI-H226 lung | NCI-H23 lung | NCI-H460 lung | OVCAR-5 ovarian | PC-3 prostate | SF-268 CNS | SF-295 CNS | SF-539 CNS | SK-MEL-2 melanoma | SK-MEL-28 melanoma | SK-OV-3 ovarian | SN12C renal | SNB-75 CNS | SR leukemia | SW-620 colon | T-47D breast | UACC-62 melanoma
31.7 µM: MDA-N
58.9 µM: OVCAR-8 ovarian
44.7 µM: COLO 205 colon
62.1 µM: RPMI-8226 leukemia
38.2 µM: HCT-15 colon
34.8 µM: RXF 393 renal
84.1 µM: MOLT-4 leukemia
50.3 µM: SK-MEL-5 melanoma
57 µM: MDA-MB-435
37.1 µM: HOP-92 NSCLC
28.3 µM: 786-0 renal

CC(CO)CCNc1ncnc2c1ncn2CCC(=O)O (centres undefined)
> 100 µM: 786-0 renal | A498 renal | A549 NSCLC | ACHN renal | CAKI-1 renal | CCRF-CEM leukemia | COLO 205 colon | DU-145 prostate | EKVX NSCLC | HCT-116 colon | HL-60(TB) leukemia | HOP-62 NSCLC | HOP-92 NSCLC | HS 578T breast | HT29 colon | IGROV1 ovarian | K-562 leukemia | KM12 colon | LOX IMVI melanoma | M14 melanoma | MALME-3M melanoma | MCF7 breast | MDA-MB-231 breast | MDA-MB-435 | MDA-N | MOLT-4 leukemia | NCI-H226 lung | NCI-H23 lung | NCI-H460 lung | NCI-H522 lung | NCI/ADR-RES ovarian | OVCAR-3 ovarian | OVCAR-4 ovarian | OVCAR-5 ovarian | OVCAR-8 ovarian | PC-3 prostate | RPMI-8226 leukemia | RXF 393 renal | SF-268 CNS | SF-295 CNS | SF-539 CNS | SK-MEL-28 melanoma | SK-MEL-5 melanoma | SK-OV-3 ovarian | SN12C renal | SNB-19 CNS | SNB-75 CNS | SR leukemia | SW-620 colon | T-47D breast | TK-10 renal | UACC-257 melanoma | UACC-62 melanoma | UO-31 renal
